One data set deals with E. coli genomic DNA. Put plainly: Gel retardation assay, DNA binding. The conditions noted are these: 15 min, 1% agarose gel. As for the experimental part: Bacterial genomic DNA was obtained by a BacteriaGen DNA Kit and quantified by a Thermo Scientific NanoDrop™ 2000c Spectrophotometer. Bacterial genomic DNA samples were incubated with isovolumetric MSI-1 at room temperature for 15 min. The gel retardation assay for DNA shift was performed by 1% w/v agarose gel (pre-stained by SYBR Green I) electrophoresis. In UV spectroscopic study, different concentrations of peptide were titrated into genomic DNA (0.5 μg/ml). After 15 min to equilibrate, the UV spectra for DNA and MSI-1-DNA complex were recorded at wavelength range of 230-350 nm. In addition, DNA dissolved in Tris-HCl (pH 7.4, CDNA=0.1 mg/ml) was mixed with EB solution (5 μM). After 10 min incubation in the dark, the EB-DNA mixture was added with different concentrations of MSI-1. Thirty minutes later, the fluorescence spectra were recorded at excitation wavelength 535 nm to measure the competitive binding of MSI-1 and EB with bacterial DNA. […] Secondary structure change of E. coli DNA was analyzed. Moreover, the intracellular changes in E. coli morphology was observed by a JEOL 1230 transmission electron microscopy (TEM) after 2 h coincubation with MSI-1.

In the next data set the test system is C57BL/6 mice. The data set is described as follows: Acute toxicity in mice. It is filed as in vivo. The conditions noted are these: intraperitoneal, n=6/group. How it is done:
C57BL/6 mice (n=6/group) were intraperitoneally injected with MSI-1 (0, 10, 20, 40, 80 and 100 mg/kg/body weight, respectively). Animals were inspected for adverse effects for 30 min, and survival was monitored for 12 h thereafter. The toxicity severity was classified as Malik U et al previously described.

A further data set relates to G- and G+ bacteria. The data set is described as follows: Antimicrobial activity, summary over the strains. It counts as cell-based. Particulars: MIC expressed in μM, compared with IC50 on eukaryotic cells. As for the experimental part: (§1) A standard micro-broth serial dilution assay was used to measure MIC of peptides. MIC was obtained by a microplate reader at 600 nm. MBC was determined as previously described.

Data set [1] concerns ndm-1-carrying recombinant E. coli. The data set is described as follows: Time-killing assay. It counts as cell-based. The conditions noted are these: 4× MIC, time-kill curve. As for the experimental part:
(§2) Bacteria were incubated with MSI-1, penicillin G sodium salt, vancomycin or methicillin at 4× MIC. Samples were removed at 0, 0.5, 1, 2, 4, and 8 h for bacterial counts.

The subject of data set [2] is S. epidermidis (methicillin-resistant). The data set is described as follows: Time-killing assay. It is filed as cell-based. Particulars: 4× MIC, time-kill curve. As for the experimental part: as §2
The test system of a further data set is Helicobacterpylori SS1. It is filed as cell-based. Particulars: 4 h. How it is done: Bacterial strains were purchased from the American Type Culture Collection (ATCC). All clinical strains were isolated from human clinical specimens by the Medical Laboratory Center of Zhongda Hospital (Nanjing, Jiangsu, China). Ndm-1, tem-1, ctx-m-1, shv-1 -carrying bacteria were constructed as previously described. The recombinant bacteria carrying drug-resistant genes were prepared in LB nutrient and induced by IPTG (1 mM) for 4 h before text. Other bacterial strains were respectively prepared in MHB and Columbia Blood Agar Base.
as §1

A short description of the next data set: in vitro. The conditions noted are these: mouse, 20% fresh mouse serum.
For data set [3] the following is noted: 37 °C for up to 7 days, multigelation at -80 °C for 10 times or boiling at 100 °C for 1 h; HPLC and antibacterial activity.
Experimental: MSI-1 were placed at 37 °C for 7 days, repeated multigelation at -80 °C for 10 times or boiled at 100 °C for 1 h, and then subjected to HPLC analysis or antibacterial activity evaluation as above.
Data set [4] deals with penicillin-resistant E. coli. The data set is described as follows: Bacteria growth curve and viability at sub-MICs. It counts as cell-based. As for the experimental part: E. coli were mixed with sub-MICs MSI-1 and OD600 value was recorded every 2 h throughout 26 h of coincubation. In addition, bacteria were suspended with nutrient broth containing MSI-1 and subjected to routine MTT assay after 24 h incubation.

A further data set deals with trypsin. The data set is described as follows: in vitro. The conditions noted are these: pH 8.2.
For data set [5], the system named is P. aeruginosa (penicillin resistant, levofloxacin sensitive). Put plainly: Resistance study, serial passages. It is filed as cell-based. Particulars: serial passages at 1/4× MIC; ratio of MIC to that of first-time exposure. As for the experimental part:
(§3) P. aeruginosa and E. coli, which were penicillin resistant but levofloxacin sensitive strains, were exposed to MSI-1, polymyxin and levofloxacin for MIC determination. Resistance study was performed as described previously.

Data set [6] has as its system E. coli (penicillin resistant, levofloxacin sensitive). Put plainly: Resistance study, serial passages. Particulars: serial passages at 1/4× MIC; ratio of MIC to that of first-time exposure. It counts as cell-based. As for the experimental part:
as §3

Data set [7] relates to Penicillin-resistant E. coli. The data set is described as follows: Local E. coli infection in scalded mouse model. It counts as in vivo, mice. Particulars: for subeschar colonies reduced to: topical once a day. As for the experimental part: To further investigate whether MSI-1 could protect from bacterial infection of the skin, mice were anesthetized with pentobarbital sodium (50 mg/kg, i.p) and shaved on the dorsal surfaces. The depilated skin was secured with 2-cm-diameter plastic containers that filled up with boiling water at contact time 10 s. Afterwards, a full-thickness wound (2 cm in diameter) was cut on the burned skin of each mouse. Penicillin-resistant E. coli suspension (100 µl, 1× 10^10 CFU/ml) was slowly inoculated over wound with a pipette tip, and a gentle stream of air was aimed over the inoculation site until skin appeared wet but absent of any standing volume from the inoculum suspension. Two hours later, vehicle (3% CMC-Na), MSI-1 or polymyxin, which was suspended in sterile CMC-Na (3%) in PBS at concentration of 10, 5, 2.5 mg/ml (MSI-1) or 5 mg/ml (polymyxin), was inoculated on the same area with a pipette tip, 1 ml/kg, once a day (n=15 per group). Mice were fed in cages individually to avoid cross infection and were treated daily for 7 consecutive days. At 3rd and 7th days, cutaneous wound healing and bacteria counts in skin lesion were measured. Moreover, 12 h after the last treatment, blood samples were collected from the retro-orbital venous plexus under anesthesia (pentobarbital sodium, 50 mg/kg). Finally, all animals were euthanized by cervical dislocation to collect the lung samples for counting live bacteria. The contents of TNF-α and IL-6 in skin homogenates and serum were measured by ELISA. Skin lesion was fixed by 4% paraformaldehyde for H&E staining. The expression levels of EGF and VEGF in skin lesion were examined by immunohistochemistry. In addition, the wound scratch assay was also performed on HaCaT cells to further test whether MSI-1 improved wound healing by promoting keratinocyte migration.

The source of these data is paper PMC6956804, “Potent antibacterial activity of MSI-1 derived from the magainin 2 peptide against drug-resistant bacteria” (Theranostics, 2020).

SMILES strings stand for the structures. Values after ≈ are worked out from the molar mass of the structure shown. Peptide text beside a SMILES is read from it. Bounds are passed on as bounds.

Text for trypsin: Aliquots of the mixture were extracted periodically and diluted with water/acetonitrile (3:2, v:v) containing 2% TFA for HPLC detection or for antibacterial activity assay [18].

In general, MBC refers to the lowest tested concentration that kills the bacteria rather than only halting them. High values mean less potent killing, low ones more potent killing. For orientation: MIC means the least concentration at which growth counts as inhibited. A word on the fraction remaining: it is what is left of the initial amount, in per cent. For the compound `CC[C@H](C)[C@H](NC(=O)CN)C(=O)N[C@@H](Cc1c[nH]c2ccccc12)C(=O)N[C@@H](CCCCN)C(=O)N[C@@H](Cc1ccccc1)C(=O)N[C@@H](CC(C)C)C(=O)N[C@@H](CCCCN)C(=O)N[C@@H](CCCCN)C(=O)N[C@@H](C)C(=O)N[C@@H](CCCCN)C(=O)N[C@@H](CCCCN)C(=O)N[C@@H](Cc1ccccc1)C(=O)N[C@@H](Cc1c[nH]c2ccccc12)C(=O)N[C@@H](CCCCN)C(N)=O` [MSI-1] (H-GIWKFLKKAKKFWK-NH2), the “dose at which the peptide bound to genomic DNA” value in the data set on E. coli genomic DNA (1/4× MIC) was determined as 2 µg/mL. Further, the “peptide concentration at which electrophoretic movement of DNA was completely inhibited” value in the data set with E. coli genomic DNA is “higher than 4 μg/ml”. Besides, in the data set with C57BL/6 mice (20 mg/kg), the adverse events entry is reported as “no immediate adverse events”. Besides, the “adverse effects at approximately 5 min post injection” value with C57BL/6 mice (dose of peptide above 40 mg/kg) is listed as “one mouse in the MS-1-treated group exhibited narrowing of the eyes”. Further, the “effective antimicrobial concentration in vitro” value with G- and G+ bacteria lay within 4.4 to 8.8 µM. For the same compound, in [1], the “time to thorough elimination of the bacteria” value is on record as ≤ 4 h. Moreover, in [2], the “reduction in CFU counts” value is given as “approximately 5 log units” and the “time to thorough bacteria elimination” value was ≤ 240 min. In the data set on Helicobacterpylori SS1, this compound gave an MBC of 64 µg/mL (≈ 35.4 µM) and an MIC of 32 µg/mL (≈ 17.7 µM). Further, in the data set “in vitro”, the share remaining at 0.5 h, 1.6 mg/ml amounted to 92.5% and the amount remaining at 2 h, 1.6 mg/ml is 53.5%. Also, the thermal stability result in data set [3] is “maintained its structure and potent antimicrobial activity”. Also, the “growth pattern of bacteria” value in data set [4] (1/4 and 1/8 MIC, OD600 over 26 h) is listed as “not significantly altered”. The “cell viability vs control” value in data set [4] (sub-MICs, MTT, within 26 h, p>0.05) is reported as “no significant difference”. The amount remaining at 0.5 h in the data set on trypsin was < 10%. For the same compound, in data set [5], the “relative MIC after 15 subcultures” value is listed as “remained stable”. In data set [6], the “relative MIC after 15 subcultures” value is on record as “remained stable”. Further, the “TNF-α and IL-6 in skin lesion homogenate” value in data set [7] (10 mg/kg, 7th day, ELISA) is given as “strongly reduced”. The “subeschar colonies reduced to” value in data set [7] (10 mg/kg, after 3 days) is given as 38.6%. Also, the “subeschar colonies reduced to” value in [7] (10 mg/kg, after 7 days) is listed as 49%. Besides, in [7] (3rd and 7th days, especially at 10 mg/kg), the wound closure result is on record as “significantly improved wound closure”. Further, the “bacterial colonies in the lung and blood” value in data set [7] (7th day, MSI-1 5 and 10 mg/kg, polymyxin B, p<0.01 vs the model group) is listed as “obviously decreased”. For the same compound, the “expression of EGF and VEGF in the burned and infected skin” value in data set [7] (immunohistochemistry) is “no obvious effect”.
